Patent publication US20250388572A1, “USE OF HPK1 INHIBITOR IN PREVENTION AND/OR TREATMENT OF HUMAN PATHOGEN INFECTION” (priority 2022, published 2025)
Read-outs that look alike come from different tables or passages of the source.

Key:
in vivo [1] = settings: male, Sprague Dawley, rat
Procedure: Six male Sprague Dawley rats were administrated a single dose via intravenous injection (iv, n=3) and oral administration (po, n=3), respectively. Intravenous injection was performed by formulating the compounds into 0.25 mg/ml or 0.5 mg/mL solutions using 10% DMSO/30% PEG400/60% water and administering it at a volume of 2 mL/kg. Oral administration was performed by formulating the compounds into 0.6 mg/ml or 2.0 mg/mL homogeneous suspensions using 0.5% methylcellulose and administering it at a volume of 5 mL/kg.
The pharmacokinetic parameters of the compounds were calculated using the WinNolin non-compartmental model.

[2] = Procedure: (§1) The procedure for identifying microsomal metabolites is as follows:
(§2) The compounds (test compounds and their numbers are shown below, among which compounds A1 and B1 are prepared by referring to the relevant method disclosed in CN110396087A) were weighed and dissolved into dimethyl sulfoxide to prepare a 20 mM solution. The compound stock solution was diluted with 50% acetonitrile in water (v/v) to a concentration of 1.0 mM as a working solution. Liver microsomes (20 mg/mL) were diluted to 1.27 mg/mL with 50 mM dipotassium hydrogen phosphate buffer as a liver microsome working solution. Reduced coenzyme was weighed and dissolved in 3307 μL of phosphate buffer (50 mM) to 5.0 mM as a reduced coenzyme working solution. For T=60 minutes samples, 4 μL of test working solution (1.0 mM) was added, followed by 316 μL of liver microsome working solution (1.27 mg/mL), and finally, 80 μL of reduced coenzyme working solution was added to start the reaction. For T=0 minutes samples, 316 μL of liver microsome working solution (1.27 mg/mL) was added and then 80 μL of reduced coenzyme working solution was added to start the reaction, without test solution incubation. After incubation at 37° C. for 60 minutes, 1200 μL of stop solution was added to stop the enzyme reaction. For T=0 minute samples, 4 μL of test working solution (1.0 mM) was added. The sample plate was placed on a vortexer and vortexed at 600 rpm for 5 minutes. Then, the sample plate was centrifuged at 4000 rpm for 10 minutes. The supernatant was removed, mixed, and dried at room temperature with nitrogen. The residue dried with nitrogen was redissolved in 300 μL of 10% acetonitrile (0.1% FA) solvent and then centrifuged at 4000 rpm for 15 minutes. The supernatant was transferred to a detection plate for mass spectrometry. Mass spectrometry was performed using LC/Q-Exactive plus.
(§3) 7-Ethoxycoumarin (10 μM) was selected as a positive control compound and operated in parallel with the compounds.

[3] = remark: listed apart in the source
Procedure: as §1, §2, §3

[4] = remark: listed apart in the source
Procedure: as §1, §2, §3

[5] = remark: listed apart in the source
Procedure: as §1, §2, §3

[6] = remark: listed apart in the source
Procedure: as §1, §2, §3

in vivo [7] = settings: male, cynomolgus monkey
Procedure: Three male Cynomolgus macaques were administrated a single dose via intravenous injection (iv, 1 mg/kg, n=3), followed by oral administration (po, 10 mg/kg, n=3) after washing out for one week. Intravenous injection was performed by formulating the compounds into 1.0 mg/mL solutions using water or 10% DMSO/30% PEG400/water and administering it at a volume of 1 mL/kg. Oral administration was performed by formulating the compounds into 2.0 mg/mL solutions or suspensions using water or 0.5% methylcellulose/1.7 meq 1N hydrochloric acid and administering it at a volume of 5 mL/kg.
The pharmacokinetic parameters of the compounds were calculated using the non-compartmental model.

[8] = Solid state stability of the free base crystalline form A (HPLC); format: physicochemical; settings: closed placement at 60° C. for 1 day

Work on [2H]C([2H])(Oc1cc(-c2cnn(C3CCN(C)CC3)c2)cnc1N)c1cccc(C#CC(C)(C)O)c1 [C] yielded an AUC(0-t) (in vivo [1]; iv, 0.5 mg/kg) of 74.8 ng·h/mL, a clearance (in vivo [1]; iv, 0.5 mg/kg) of 101 mL/min/kg and an AUC(0-t) (in vivo [1]; po, 3 mg/kg) of 42.8 ng·h/mL. For the same compound, the bioavailability (in vivo [1]; po, 3 mg/kg) was 9.52%.
For [2H]C([2H])([2H])N1CCC(c2ncc(-c3cnc(N)c(OCc4cccc(C#CC(C)(C)O)c4)c3)s2)CC1 [Compound B2], the “remaining percentage of the parent cores after 60 min” value (“remaining percentage” for short) [2] was 70.4%, the “remaining percentage” value [3] was 23.4% and the “remaining percentage” value [4] was 43.9%. For the same compound, the “remaining percentage” value [5] was 42.8% and the “remaining percentage” value [6] was 8.9%.
In the case of CN1CCC(n2cc(-c3cnc(N)c(OCc4cccc(C#CC(C)(C)O)c4)c3)cn2)CC1 [Compound A1, reference compound], the bioavailability (in vivo [7]) is reported as 4.61%, the AUC(0-t) (in vivo [7]; iv, 1 mg/kg) is reported as 881 ng·h/mL and the clearance (in vivo [7]; iv, 1 mg/kg) is reported as 18.9 mL/min/kg. For the same compound, the AUC(0-t) (in vivo [7]; po, 10 mg/kg) was 388 ng·h/mL, the “remaining percentage” value ([2]; human, microsomes, 1 h, 10 µM) was 43.84% and the AUC(0-t) (in vivo [1]; iv, 1 mg/kg) was 116 ng·h/mL. For the same compound, the clearance (in vivo [1]; iv, 1 mg/kg) was 129 mL/min/kg, the AUC(0-t) (in vivo [1]; po, 10 mg/kg) was 79.8 ng·h/mL and the bioavailability (in vivo [1]; po, 10 mg/kg) was 6.84%. The “remaining percentage” value ([3]; cynomolgus macaque, microsomes, 1 h, 10 µM) was 0.36%, the “remaining percentage” value ([4]; rat, microsomes, 1 h, 10 µM) was 2.44% and the “remaining percentage” value ([5]; mouse, microsomes, 1 h, 10 µM) was 1.13%. The “remaining percentage” value ([6]; beagle, dog, microsomes, 1 h, 10 µM) was 0.17%.
With CN1CCC(c2ncc(-c3cnc(N)c(OCc4cccc(C#CC(C)(C)O)c4)c3)s2)CC1 [Compound B1, reference compound] the “remaining percentage” value [2] was 51.82%, the “remaining percentage” value [3] was 9.11% and the “remaining percentage” value [4] was 11.21%. For the same compound, the “remaining percentage” value [5] was 1.24% and the “remaining percentage” value [6] was 0.12%.
For [2H]C([2H])([2H])N1CCC(n2cc(-c3cnc(N)c(OCc4cccc(C#CC(C)(C)O)c4)c3)cn2)CC1 [Compound A2 free base crystalline form A, 4-(3-(((2-amino-5-(1-(1-trideuteriomethylpiperidin-4-yl)-1H-pyrazol-4-yl)pyridin-3-yl)oxy)methyl)phenyl)-2-methylbut-3-yn-2-ol], the “HPLC Area (%) 60° C./1 day, peak 1” value ([8]; RRT 0.95, starting sample 0.42) was 0.41%, the “HPLC Area (%) 60° C./1 day, peak 2” value ([8]; RRT 1.00 (main peak), starting sample 99.26) was 99.33% and the “HPLC Area (%) 60° C./1 day, peak 3” value ([8]; RRT 1.05, starting sample 0.22) was 0.17%. The “HPLC Area (%) 60° C./1 day, peak 4” value ([8]; RRT 1.06, starting sample 0.10) was 0.09%.
With [2H]C([2H])([2H])C(O)(C#Cc1cccc(COc2cc(-c3cnn(C4CCN(C)CC4)c3)cnc2N)c1)C([2H])([2H])[2H] [D] the AUC(0-t) (in vivo [1]; iv, 0.3 mg/kg) was 28.7 ng·h/mL, the clearance (in vivo [1]; iv, 0.3 mg/kg) was 151 mL/min/kg and the AUC(0-t) (in vivo [1]; po, 2 mg/kg) was 9.94 ng·h/mL. For the same compound, the bioavailability (in vivo [1]; po, 2 mg/kg) was 5.2%.
